Assays:
[1] = test system: Mouse neuroblastoma cells NS-20Y; assay: Neurite appearance in mouse neuroblastoma NS-20Y cells (Table 8); assay type: cell-based;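 note: cells grown in polyornithine-coated dishes, with timing counted from the start of culture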
mouse = assay: Acute toxicity in mouse (Table 10); assay type: in vivo
Method: The acute toxicity of the compounds of the invention was examined by the following method.
Male ddy-strain 5-week old mice, 4-6 per group, were used as experimental animals. Each of the compounds was dissolved or suspended in saline and administered perorally (p.o.) or intraperitoneally (i.p.), and the toxicity of the compound was assessed 24 hours after the administration.

Mouse neuro 2a cells = assay: Neurite outgrowth of mouse neuroblastoma neuro 2a cells (Table 7); assay type: cell-based; conditions: mean ± S.D.
Method: The biological activities in vitro of the compounds of formula (I) on cells of the nervous system were tested. The cells tested were mouse neuroblastoma cell line neuro-2a (Dainippon Pharmaceutical Co., Ltd.) which have been established as the cells of the nervous system. The above nerve cells were grown in an incubator at 37° C. in the presence of 5% carbon dioxide gas exponentially, and the cultured for a certain period of time together with the compounds of formula (I).
The effects of the compounds of this invention on neuroblastoma cells were examined by the following method.
Mouse neuro 2a cells in the logarithmic growth period in the Dulbecco's modified Eagle's medium [DMEM, containing 100 units/ml of penicillin G sodium and 100 micrograms/ml of streptomycin sulfate] containing 10% of FCS were seeded in a 48-well plate so that the number of cells was 1,000 cells/well, and cultured for one day in 0.25 ml of the culture fluid in each well in an incubator containing 5% of carbon dioxide gas in air at 37° C. The medium was replaced by a medium containing each antibiotics and FCS and the cells were further cultured for 24 hours. Then, a 4% aqueous glutaraldehyde solution in the same amount as a medium (0.25 ml) was added, and the culture was left to stand at room temperature for 2 hours to fix the cells. After washing with water, a 0.05% aqueous solution of methylene blue was added to stain the cells. Under a microscope, the number of cells containing outgrown neurites (cells having at least one neurite with a length of at least two times as large as the long diameter of the cell) was counted visually, and the proportion of these cells in the entire cells was calculated. The well was observed over 5 or more visual fields (at least 2% of the entire surface area of the well) continuous to the left and right from a mark put at the center of the well, and more than 200 cells was counted. One drug compound was used in 6 different concentrations at most, and three runs were conducted for each concentration.

[2] = i.p., 24 hours after administration

Structure (SMILES) | The number of cells in which neurites appeared/Total number of cells ([1]; 24 hour, 0.2 mM) | The number of cells in which neurites appeared/Total number of cells ([1]; 48 hour, 0.1 mM) | Estimated LD50 (mouse; in vivo, ip) | Ratio of the number of cells having neurites with a length of at least two times as large as the diameter of cells to the total number of cells (Mouse neuro 2a cells; 0.01 mM) | Ratio of the number of cells having neurites with a length of at least two times as large as the diameter of cells to the total number of cells (Mouse neuro 2a cells; 0.03 mM) | Ratio of the number of cells having neurites with a length of at least two times as large as the diameter of cells to the total number of cells (Mouse neuro 2a cells; 0.3 mM) | Ratio of the number of cells having neurites with a length of at least two times as large as the diameter of cells to the total number of cells (Mouse neuro 2a cells; 1 mM) | The number of cells in which neurites appeared/Total number of cells ([1]; 48 hour, 0.2 mM) | Ratio of the number of cells having neurites with a length of at least two times as large as the diameter of cells to the total number of cells (Mouse neuro 2a cells; 0.1 mM) | The number of cells in which neurites appeared/Total number of cells ([1]; 24 hour, 0.1 mM) | The number of cells in which neurites appeared/Total number of cells ([1]; 24 hour, 0.5 mM) | The number of cells in which neurites appeared/Total number of cells ([1]; 48 hour, 0.5 mM) | Estimated LD50 (mouse; [2])
O=C(c1ccccc1)N1CCN(c2ccnc(N3CCCCC3)n2)CC1 [Compound 232] | 3/50 | 4/50 | > 1000 mg/kg |  |  |  |  |  |  |  |  |  | 
CC(=O)c1ccc(C(=O)N(C)c2ccnc(N3CCC(c4ccccc4)CC3)n2)cc1 [Compound 176] | 4/50 |  | > 1000 mg/kg | 18.4 ± 2.0% | 11.5 ± 2.1% | 13.6 ± 0.9% | 14.8 ± 2.9% | 4/50 |  |  |  |  | 
O=C(O)/C=C\C(=O)O.O=CN1CCN(c2ccnc(N3CCCCC3)n2)CC1 [Compound 224, 4-(N-formylpiperazino)-2-piperidino pyrimidine maleate] |  | 3/50 |  |  |  | 21.4 ± 3.3% |  |  | 8.9 ± 1.5% | 2/50 |  |  | 
CN(C(=O)c1ccc2ccccc2c1)c1ccnc(N2CCC(c3ccccc3)CC2)n1 [Compound 144] |  | 4/50 |  | 5.1 ± 0.9% |  |  |  |  | 4.2 ± 0.6% |  | 3/50 |  | 
CN(C(=O)c1ccc(C=O)cc1)c1ccnc(N2CCCCC2)n1 [Compound 200] | 8/50 |  |  |  |  | 19.7 ± 3.1% |  | 11/50 | 5.8 ± 1.3% |  | 16/50 | 18/50 | > 1000 mg/kg
O=C1CCCN1c1ccnc(N2CCC(c3ccccc3)CC2)n1 [Compound 280] |  |  |  | 7.1 ± 1.7% |  | 7.5 ± 1.1% | 8.1 ± 6.3% |  | 6.9 ± 1.4% |  |  |  | > 1000 mg/kg
COC(=O)c1ccc(C(=O)N(C)c2ccnc(N3CCCCC3)n2)cc1 [Compound 192] | 5/50 |  | 500 to 1000 mg/kg |  |  | 13.8 ± 2.8% |  | 7/50 | 8.0 ± 1.3% |  | 5/50 | 11/50 | 
CC1CC(C)CN(c2nccc(N3CCCC3=O)n2)C1 (centres unmarked) [Compound 344] |  | 3/50 | 250 to 500 mg/kg | 5.6 ± 1.6% |  | 10.4 ± 3.4% | 12.5 ± 1.3% |  | 7.5 ± 3.3% | 3/50 |  |  | 
O=C1CCCN1c1ccnc(N2CCCCC2)n1 [Compound 273] | 15/50 | 8/50 |  | 5.3 ± 0.8% |  | 24.0 ± 3.2% | 10.3 ± 4.0% | 16/50 | 7.7 ± 2.0% | 10/50 | 18/50 | 22/50 | > 500 mg/kg
O=CN1CCN(c2ccnc(N3CCCCC3)n2)CC1 [Compound 223] |  |  |  |  |  |  |  |  |  |  |  |  | > 1000 mg/kg

— patent US5358945A, “Pyrimidine compound and pharmaceutically acceptable salts thereof” (Mitsui Petrochemical Industries, Ltd., priority 1990, dated 1994)
